Data taken from patent publication US20110166077A9, “COMBINED THERAPY AGAINST TUMORS COMPRISING SUBSTITUTED ACRYLOYL DISTAMYCIN DERIVATIVES AND RADIOTHERAPY” (Pharmacia Italia S.p.A., priority 2002, published 2011).
Several values for one entry are separate records, joined by “and”; a condition that tells them apart may be missing. Equal values may be shown once. Marks after values point to notes of the source that are not given here.

Tests used:
[1] = tested on: SQ20B (radiation-resistant human squamous cell carcinoma of the larynx) cell line; assay: in vitro clonogenic assay, drug combined with ionizing radiation, SQ20B; assay type: cell-based; conditions: for C20 drug concentration corresponding to 20% cell survival / C80 drug concentration corresponding to 80% cell survival: drug alone, 2 h treatment; for Sensitization Ratio SR, Values for each culture: simultaneous schedule (2 h drug, 10 min irradiation at start of 2nd hour), SR<1 = radiosensitisation; for Sensitization Ratio SR, Mean of duplicates: simultaneous schedule
Experimental: (§1) The remarkable radiosensitisation effect exerted by the α-bromo- or α-chloro-acryloyl-distamycin derivatives, in particular the compounds of formula (I), is shown according to in vitro clonogenic assays on SQ20B (radiation-resistant human squamous cell carcinoma of the larynx) and A431 (human vulval carcinoma) cell lines. In this respect, two different schedule treatments were evaluated either comprising simultaneous exposure to the tested compound of formula (I) and to radiation, or sequential exposure to both these cytotoxic agents in any order, that is drug/radiation or radiation/drug (see details below). As control, the effect of cisplatin in combination with radiotherapy has been tested in the same operative conditions.
(§2) To define a Sensitization Ratio (SR), the clonogenic survival of cells being treated with a combination of irradiation and drug exposure (SX+D) was compared with the product of survival for drug alone (SD) and irradiation alone (SX), as follows SR=SX+D/SD*SX
(§3) From the above, it is clear to the skilled person that if both radiation and drug exerted their cytotoxic effect independently from each other, SR values would be close to 1 whereas, on the contrary, a radiosensitisation effect indicating a synergism between ionizing radiation and drug is characterized by SR values lower than 1 (SR<1).
(§4) For both compounds Compound A and cisplatin, exposures were simultaneous to ionizing radiation in both SQ20B and A431 cell lines. The schedule consisted of 2 h drug treatment with a period of irradiation (10 minutes) starting at the beginning of the 2nd hour of treatment.
(§5) Four data sets for each of Compound A and cisplatin, in each cell line were obtained (see table 1) comprising duplicates of two different drug concentration chosen to yield cytotoxicity values corresponding to 80% (C80) and 20% (C20) survival for treatment with the drug alone. […]

[2] = tested on: A431 (human vulval carcinoma) cell line; assay: in vitro clonogenic assay, drug combined with ionizing radiation, A431; assay type: cell-based; conditions: for C20 drug concentration corresponding to 20% cell survival / C80 drug concentration corresponding to 80% cell survival: drug alone, 2 h treatment; for Sensitization Ratio SR, Values for each culture: simultaneous schedule (2 h drug, 10 min irradiation at start of 2nd hour), SR<1 = radiosensitisation; for Sensitization Ratio SR, Mean of duplicates: simultaneous schedule
Experimental: as §1, §2, §3, §4, §5

[3] = drug at C20 (Compound A 350 ng/ml, cisplatin 6.5 μM)
[4] = drug at C80 (Compound A 50 ng/ml, cisplatin 0.4 μM)
[5] = drug at C20 (Compound A 90 ng/ml, cisplatin 5.0 μM)
[6] = drug at C80 (Compound A 20 ng/ml, cisplatin 0.8 μM)

SMILES	Sensitization Ratio SR / radiosensitisation effect ([1]; combination with radiotherapy, summary over concentrations)	C20 drug concentration corresponding to 20% cell survival [1]	C80 drug concentration corresponding to 80% cell survival [1]	Sensitization Ratio SR, Values for each culture ([1]; drug at C20 (Compound A 350 ng/ml, cisplatin 6.5 μM), hydrochloride)	Sensitization Ratio SR, Values for each culture ([1]; drug at C80 (Compound A 50 ng/ml, cisplatin 0.4 μM), hydrochloride)	Sensitization Ratio SR, Mean of duplicates [1, 3]	Sensitization Ratio SR, Mean of duplicates [1, 4]	C20 drug concentration corresponding to 20% cell survival [2]	C80 drug concentration corresponding to 80% cell survival [2]	Sensitization Ratio SR, Values for each culture ([2]; drug at C20 (Compound A 90 ng/ml, cisplatin 5.0 μM), hydrochloride)	Sensitization Ratio SR, Values for each culture ([2]; drug at C80 (Compound A 20 ng/ml, cisplatin 0.8 μM), hydrochloride)	Sensitization Ratio SR, Mean of duplicates [2, 5]	Sensitization Ratio SR, Mean of duplicates [2, 6]	Sensitization Ratio SR, Values for each culture [1, 3]	Sensitization Ratio SR, Values for each culture [1, 4]	Sensitization Ratio SR, Values for each culture [2, 5]	Sensitization Ratio SR, Values for each culture [2, 6]
C=C(Br)C(=O)Nc1cc(C(=O)Nc2cc(C(=O)Nc3cc(C(=O)Nc4cc(C(=O)NCCNC(=N)N)n(C)c4)n(C)c3)n(C)c2)n(C)c1.Cl [Compound A, N-[5-[[[5-[[[2-[(animoiminomethyl)amino]ethyl]amino]carbonyl]-1-methyl-1H-pyrrol-3-yl]amino]carbonyl]-1-methyl-1H-pyrrol-3-yl]-4-[[[4-[(2-bromo-1-oxo-2-propenyl)amino]-1-methyl-1H-pyrrol-2-yl]carbonyl]amino]-1-methyl-1H-pyrrole-2-carboxamide hydrochloride]	lower than 1	350 (C20)^(d) ng/ml	50 (C80)^(c) ng/ml	0.55 and 0.46	0.84 and 0.85	C20 0.50	C80 0.85	90 (C20) ng/ml	20 (C80) ng/ml	0.33 and 0.40	0.65 and 0.59	C20 0.37	C80 0.62	–	–	–	–
N.N.[Cl][Pt][Cl] [cisplatin, reference compound]	–	6.5 (C20) μM	0.4 (C80) μM	–	–	C20 0.77	C80 0.80	5.0 (C20) μM	0.8 (C80) μM	–	–	C20 0.97	C80 0.96	0.72 and 0.81	0.78 and 0.82	1.08 and 0.86	1.02 and 0.84
